Patent publication US10376555B2, “Identification of cyclic peptide agonists of galanin receptor 2 and 3 guided by spexin solution structure” (Hong Kong Baptist University, priority 2017, dated 2019)
Positions of bridges follow the written chain, without caps; N, C: chain ends. Residues, ends and D or L forms follow the SMILES beside them. No end group written: not given here.

Key:
hGalR2 = target: T1, hGalR2 (Homo sapiens, UniProt O43603); test: SRE-Luc receptor activation assay, hGalR2; type: cell-based; details: for effect of cysteine mutation on receptor activation of GalR2: single dose (1 μM, 6 hours), compared with wild type hSPX; for hGalR2 Emax: Relative to hSPX Emax; for activity on GalR2, in words: full-dose SRE-Luc
T1 construct: host or cells: HEK293
T1 sequence (O43603 1-387): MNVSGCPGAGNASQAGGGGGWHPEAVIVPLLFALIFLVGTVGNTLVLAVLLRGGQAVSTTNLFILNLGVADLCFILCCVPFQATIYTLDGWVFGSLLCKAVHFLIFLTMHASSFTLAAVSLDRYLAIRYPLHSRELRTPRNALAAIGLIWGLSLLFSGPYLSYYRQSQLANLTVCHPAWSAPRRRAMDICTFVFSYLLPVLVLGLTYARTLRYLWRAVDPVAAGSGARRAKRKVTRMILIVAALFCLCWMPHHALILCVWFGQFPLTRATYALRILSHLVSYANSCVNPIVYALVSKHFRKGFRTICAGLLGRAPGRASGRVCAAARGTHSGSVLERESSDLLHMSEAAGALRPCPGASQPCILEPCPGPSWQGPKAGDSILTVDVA

hGalR3 = target: T2, hGalR3 (Homo sapiens, UniProt O60755); test: SRE-Luc receptor activation assay, hGalR3; type: cell-based; details: for effect of cysteine mutation on receptor activation of GalR3: single dose (1 μM, 6 hours), compared with wild type hSPX; for hGalR3 Emax: Relative to hSPX Emax; for activity on GalR3, in words: full-dose SRE-Luc
T2 construct: host or cells: HEK293
T2 sequence (O60755 1-368): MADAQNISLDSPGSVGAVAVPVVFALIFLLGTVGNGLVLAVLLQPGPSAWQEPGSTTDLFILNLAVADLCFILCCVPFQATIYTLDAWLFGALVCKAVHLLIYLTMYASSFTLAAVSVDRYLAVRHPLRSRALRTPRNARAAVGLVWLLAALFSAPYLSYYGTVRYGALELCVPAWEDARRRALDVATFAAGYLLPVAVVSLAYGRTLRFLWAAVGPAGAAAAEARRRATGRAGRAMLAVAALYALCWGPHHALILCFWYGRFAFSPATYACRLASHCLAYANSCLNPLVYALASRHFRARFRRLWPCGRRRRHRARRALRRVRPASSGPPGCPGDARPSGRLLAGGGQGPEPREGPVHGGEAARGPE

[1] = In vitro serum stability assay (RP-HPLC); type: in vitro ADME, rat; details: rat serum in RPMI 1640, 37° C., 100 μg/mL; read-out: serum half-life (t1/2)
Description: The serum stability of CSAs was tested using an in vitro assay followed by reverse-phase high-performance liquid chromatography (RP-HPLC) analysis (FIGS. 33-38).
750 μL RPMI medium 1640 (Thermo Fisher Scientific) was mixed with […] rat serum, and incubated at 37° C. for 15 min before adding peptide. The peptide dissolved in water was added into the reaction buffer to make a final concentration of 100 μg/mL. At each time point (5, 15, 30, 60, 120, 240, and 480 min), 100 μL reaction solution were taken, and mixed with 200 μL 6% trichloroacetic acid (TCA, Sigma-Aldrich). The resulting cloudy solution was cooled at 4° C. for 15 min, and centrifuged for 10 mins at 13,000 rpm. The supernatant was then analyzed by RP-HPLC. The extent of intact peptide was calculated based on the peak area and was normalized using a control sample.

hGalR1 = target: T3, hGalR1 (Homo sapiens, UniProt P47211); test: SRE-Luc receptor activation assay, hGalR1; type: cell-based; details: for hGalR1 Emax: Relative to hGAL Emax
T3 sequence (P47211 1-349): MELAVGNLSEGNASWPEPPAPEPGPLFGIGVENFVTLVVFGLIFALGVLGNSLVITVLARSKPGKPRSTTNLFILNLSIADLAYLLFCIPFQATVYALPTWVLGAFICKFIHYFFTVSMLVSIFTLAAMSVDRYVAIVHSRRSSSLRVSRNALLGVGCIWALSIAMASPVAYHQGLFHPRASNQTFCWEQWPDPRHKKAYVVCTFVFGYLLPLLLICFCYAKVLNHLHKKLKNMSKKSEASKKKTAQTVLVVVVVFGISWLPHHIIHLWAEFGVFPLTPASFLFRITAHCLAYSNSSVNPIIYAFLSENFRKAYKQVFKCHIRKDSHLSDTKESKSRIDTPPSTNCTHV

[2] = HEK293 cells transfected with hGalR1, Gqi, SRE-Luc, 6 h treatment, full-dose

Compound	effect of cysteine mutation on receptor activation of GalR2 (hGalR2)	effect of cysteine mutation on receptor activation of GalR3 (hGalR3)	hGalR2 Emax (hGalR2)	EC50 (hGalR3) [µM]	hGalR3 Emax (hGalR3)	half-life at 100 μg/mL [1] [h]	hGalR1 EC50 (hGalR1; [2])	hGalR1 Emax (hGalR1)	activity on GalR2, in words (hGalR2)	activity on GalR3, in words (hGalR3)	EC50 (hGalR1; [2]) [µM]	activity on GalR1, in words (hGalR1; full-dose SRE-Luc)	EC50 (hGalR2) [µM]
C14: hSPX mutant with single mutation to cysteine at position 14 (NWTPQAMLYLKGAC-NH2)	severely impaired bioactivity	severely impaired bioactivity	–	–	–	–	–	–	–	–	–	–	–
CC(C)C[C@H](NC(=O)[C@H](CC(C)C)NC(=O)[C@H](Cc1ccc(O)cc1)NC(=O)CNC(=O)[C@H](C)NC(=O)[C@H](CO)NC(=O)[C@H](CC(N)=O)NC(=O)[C@H](CC(C)C)NC(=O)[C@@H](NC(=O)[C@H](Cc1c[nH]c2ccccc12)NC(=O)CN)[C@@H](C)O)C(=O)NCC(=O)N1CCC[C@H]1C(=O)N[C@@H](Cc1c[nH]cn1)C(=O)N[C@@H](C)C(=O)N[C@H](C(N)=O)C(C)C [hGAL (1-16), reference compound]	–	–	1.02	> 10	0.45	0.235	–	–	–	–	–	–	–
C10: hSPX mutant with single mutation to cysteine at position 10 (NWTPQAMLYCKGAQ-NH2)	severely impaired bioactivity	severely impaired bioactivity	–	–	–	–	–	–	–	–	–	–	–
CSCC[C@@H]1NC(=O)[C@H](C)NC(=O)[C@H](CCC(N)=O)NC(=O)[C@@H](NC(=O)[C@@H](NC(=O)[C@H](Cc2c[nH]c3ccccc23)NC(=O)[C@@H](N)CC(N)=O)[C@@H](C)O)CSSC[C@@H](C(=O)N[C@@H](CCC(N)=O)C(N)=O)NC(=O)CNC(=O)[C@H](CCCCN)NC(=O)[C@H](CC(C)C)NC(=O)[C@H](Cc2ccc(O)cc2)NC(=O)[C@H](CC(C)C)NC1=O [LH102] (H-NWTCQAMLYLKGCQ-NH2; disulfide 4-13; N-terminus assumed)	–	–	1.08	–	–	–	N.M.	N.M.	–	–	–	–	–
CSCC[C@H](NC(=O)[C@H](C)NC(=O)[C@H](CCC(N)=O)NC(=O)[C@@H]1CCCN1C(=O)[C@@H](NC(=O)[C@H](Cc1c[nH]c2ccccc12)NC(=O)[C@@H](N)CC(N)=O)[C@@H](C)O)C(=O)N[C@@H](CC(C)C)C(=O)N[C@@H](Cc1ccc(O)cc1)C(=O)N[C@@H](CC(C)C)C(=O)N[C@@H](CCCCN)C(=O)NCC(=O)N[C@@H](CS)C(=O)N[C@@H](CCC(N)=O)C(N)=O [hSPX (C13)] (H-NWTPQAMLYLKGCQ-NH2; N-terminus assumed)	minimum effects	minimum effects	0.87	–	0.88	–	N.M.	N.M.	little effect on the potency	little effect on the potency	–	–	–
CC(C)C[C@@H]1NC(=O)[C@H](CC(C)C)NC(=O)[C@H](Cc2ccc(O)cc2)NC(=O)CNC(=O)[C@H](C)NC(=O)[C@H](CO)NC(=O)[C@H](CC(N)=O)NC(=O)[C@H](CC(C)C)NC(=O)[C@H]([C@@H](C)O)NC(=O)[C@H](Cc2c[nH]c3ccccc23)NC(=O)[C@@H](N)CSSC[C@@H](C(=O)N[C@@H](Cc2c[nH]cn2)C(=O)N[C@@H](C)C(=O)N[C@H](C(N)=O)C(C)C)NC(=O)CNC1=O [LH201] (H-CWTLNSAGYLLGCHAV-NH2; disulfide 1-13)	–	–	1.00	> 10	0.55	2.82	–	0.35	kept full activity on GalR2	only able to activate GalR3 at high doses	> 10	lost all activity on GalR1	0.12
C12: hSPX mutant with single mutation to cysteine at position 12 (NWTPQAMLYLKCAQ-NH2)	severely impaired bioactivity	severely impaired bioactivity	–	–	–	–	–	–	–	–	–	–	–
CSCC[C@H](NC(=O)[C@H](C)NC(=O)[C@H](CCC(N)=O)NC(=O)[C@@H]1CCCN1C(=O)[C@@H](NC(=O)[C@H](Cc1c[nH]c2ccccc12)NC(=O)[C@@H](N)CS)[C@@H](C)O)C(=O)N[C@@H](CC(C)C)C(=O)N[C@@H](Cc1ccc(O)cc1)C(=O)N[C@@H](CC(C)C)C(=O)N[C@@H](CCCCN)C(=O)NCC(=O)N[C@@H](C)C(=O)N[C@@H](CCC(N)=O)C(N)=O [hSPX (C1)] (H-CWTPQAMLYLKGAQ-NH2; N-terminus assumed)	minimum effects	minimum effects	1.05	–	1.00	–	N.M.	N.M.	little effect on the potency	little effect on the potency	–	–	–
CC(C)C[C@H](NC(=O)CNC(=O)[C@H](CC(N)=O)NC(=O)[C@H](CCCCN)NC(=O)[C@H](CC(=O)O)NC(=O)[C@H](CO)NC(=O)[C@H](Cc1ccccc1)NC(=O)[C@H](CO)NC(=O)[C@H](CCCNC(=N)N)NC(=O)[C@H](Cc1c[nH]cn1)NC(=O)[C@H](CC(N)=O)NC(=O)CNC(=O)[C@@H](NC(=O)[C@H](C)NC(=O)[C@H](Cc1c[nH]cn1)NC(=O)[C@@H]1CCCN1C(=O)CNC(=O)[C@H](CC(C)C)NC(=O)[C@H](CC(C)C)NC(=O)[C@H](Cc1ccc(O)cc1)NC(=O)CNC(=O)[C@H](C)NC(=O)[C@H](CO)NC(=O)[C@H](CC(N)=O)NC(=O)[C@H](CC(C)C)NC(=O)[C@@H](NC(=O)[C@H](Cc1c[nH]c2ccccc12)NC(=O)CN)[C@@H](C)O)C(C)C)C(=O)N[C@H](C(=O)N[C@@H](CO)C(N)=O)[C@@H](C)O [hGAL, reference compound]	–	–	0.94	–	0.68	–	–	–	–	–	–	–	–
CSCC[C@H](NC(=O)[C@H](C)NC(=O)[C@H](CCC(N)=O)NC(=O)[C@H](CS)NC(=O)[C@@H](NC(=O)[C@H](Cc1c[nH]c2ccccc12)NC(=O)[C@@H](N)CC(N)=O)[C@@H](C)O)C(=O)N[C@@H](CC(C)C)C(=O)N[C@@H](Cc1ccc(O)cc1)C(=O)N[C@@H](CC(C)C)C(=O)N[C@@H](CCCCN)C(=O)NCC(=O)N[C@@H](C)C(=O)N[C@@H](CCC(N)=O)C(N)=O [hSPX (C4)] (H-NWTCQAMLYLKGAQ-NH2; N-terminus assumed)	minimum effects	minimum effects	0.98	–	0.91	–	N.M.	N.M.	little effect on the potency	little effect on the potency	–	–	–
